Laboratory results: patent publication US11840513B2, “Substituted nicotinimide inhibitors of BTK for treating cancer” (GUANGZHOU INNOCARE PHARMA TECH CO., LTD., priority 2013, dated 2023)

Molecular target: SRC (Homo sapiens (Human), UniProt P12931)
Assay: kinase-tagged phage / affinity bead competition binding screen at 1000 nM (qPCR readout)
Settings: 1000 nM screen

Chain of SRC (P12931 whole entry, looked up): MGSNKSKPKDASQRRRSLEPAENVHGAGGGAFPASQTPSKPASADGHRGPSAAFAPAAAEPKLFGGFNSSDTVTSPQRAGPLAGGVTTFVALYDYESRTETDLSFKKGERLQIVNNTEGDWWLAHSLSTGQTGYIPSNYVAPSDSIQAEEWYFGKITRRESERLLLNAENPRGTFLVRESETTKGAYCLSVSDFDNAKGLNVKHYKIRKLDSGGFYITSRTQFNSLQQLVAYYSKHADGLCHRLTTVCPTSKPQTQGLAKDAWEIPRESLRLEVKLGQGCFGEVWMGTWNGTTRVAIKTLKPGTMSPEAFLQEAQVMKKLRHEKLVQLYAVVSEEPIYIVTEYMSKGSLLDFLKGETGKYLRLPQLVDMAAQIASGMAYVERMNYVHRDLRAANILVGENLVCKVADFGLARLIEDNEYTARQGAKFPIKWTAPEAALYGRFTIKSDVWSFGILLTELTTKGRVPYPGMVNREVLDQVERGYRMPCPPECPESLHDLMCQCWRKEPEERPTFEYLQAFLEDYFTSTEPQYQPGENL

## C=CC(=O)N1CCN(c2ccc(C(N)=O)c(-c3ccc(Oc4ccccc4)cc3)n2)CC1 [Example 5, 6-(4-acryloylpiperazin-1-yl)-2-(4-phenoxyphenyl)nicotinamide]
  Fold Difference (BTK vs SRC): >100×
